Structures can show the parent of a compound that is named as a salt. Where two headings read alike, the source gives them in different places.
Columns and labels:
FGFR1 = target: T1, FGFR1 (Homo sapiens, UniProt P11362); experiment: Kinase binding assay (kinase-tagged T7 phage, affinity beads, qPCR), Kd; conditions: read-out: FGFR1 (Kd nM)
T1 construct: made in house; host or cells: E. coli (BL21-derived), T7 phage
Description: (§1) Kinase-tagged T7 phage strains were prepared in an E. coli host derived from the BL21 strain. E. coli were grown to log-phase and infected with T7 phage and incubated with shaking at 32° C. until lysis. The lysates were centrifuged and filtered to remove cell debris. Streptavidin-coated magnetic beads were treated with biotinylated small molecule ligands for 30 minutes at room temperature to generate affinity resins for kinase assays. The liganded beads were blocked with excess biotin and washed with blocking buffer SeaBlock (Pierce), 1% BSA, 0.05% Tween 20, 1 mM DTT to remove unbound ligand and to reduce non-specific binding.
(§2) Test compounds were prepared as 111× stocks in 100% DMSO. Kds were determined using an 11-point 3-fold compound dilution series with three DMSO control points. […] The compounds were then diluted directly into the assays such that the final concentration of DMSO was 0.9%. All reactions performed in polypropylene 384-well plate. Each was a final volume of 0.02 ml. […] The kinase concentration in the eluates was measured by qPCR.
(§3) Binding constants were calculated with a standard dose-response curve using the Hill equation: […]
(§4) The Hill Slope was set to −1. Curves were fitted using a non-linear least square fit with the Levenberg-Marquardt algorithm.

FGFR3 = target: T2, FGFR3 (Homo sapiens, UniProt P22607); experiment: as above; conditions: read-out: FGFR3 (Kd nM)
T2 construct: made in house; host or cells: E. coli (BL21-derived), T7 phage
T2 sequence (P22607 23-806): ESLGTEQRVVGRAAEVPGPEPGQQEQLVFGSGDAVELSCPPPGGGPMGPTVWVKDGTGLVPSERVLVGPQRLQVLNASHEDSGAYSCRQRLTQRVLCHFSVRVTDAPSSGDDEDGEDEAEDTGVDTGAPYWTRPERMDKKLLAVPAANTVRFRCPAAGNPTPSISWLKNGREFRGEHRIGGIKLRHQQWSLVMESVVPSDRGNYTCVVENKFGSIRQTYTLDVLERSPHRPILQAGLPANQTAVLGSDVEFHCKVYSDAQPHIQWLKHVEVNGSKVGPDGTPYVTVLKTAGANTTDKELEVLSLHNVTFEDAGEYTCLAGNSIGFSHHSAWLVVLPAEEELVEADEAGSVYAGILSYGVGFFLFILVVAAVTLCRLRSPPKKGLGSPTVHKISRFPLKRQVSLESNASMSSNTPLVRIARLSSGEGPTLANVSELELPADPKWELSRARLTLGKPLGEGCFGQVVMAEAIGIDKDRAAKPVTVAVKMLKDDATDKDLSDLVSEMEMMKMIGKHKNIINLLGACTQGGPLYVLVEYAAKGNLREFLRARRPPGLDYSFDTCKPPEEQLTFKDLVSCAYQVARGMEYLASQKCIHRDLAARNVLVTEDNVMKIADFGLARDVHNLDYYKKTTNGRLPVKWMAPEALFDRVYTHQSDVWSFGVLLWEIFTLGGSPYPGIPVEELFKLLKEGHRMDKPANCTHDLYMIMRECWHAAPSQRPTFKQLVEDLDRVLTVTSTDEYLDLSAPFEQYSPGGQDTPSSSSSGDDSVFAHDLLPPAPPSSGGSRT
Description: as §1, §2, §3, §4

[1] = kinase binding assay, 11-point 3-fold dilution series

T1 sequence (P11362 22-822): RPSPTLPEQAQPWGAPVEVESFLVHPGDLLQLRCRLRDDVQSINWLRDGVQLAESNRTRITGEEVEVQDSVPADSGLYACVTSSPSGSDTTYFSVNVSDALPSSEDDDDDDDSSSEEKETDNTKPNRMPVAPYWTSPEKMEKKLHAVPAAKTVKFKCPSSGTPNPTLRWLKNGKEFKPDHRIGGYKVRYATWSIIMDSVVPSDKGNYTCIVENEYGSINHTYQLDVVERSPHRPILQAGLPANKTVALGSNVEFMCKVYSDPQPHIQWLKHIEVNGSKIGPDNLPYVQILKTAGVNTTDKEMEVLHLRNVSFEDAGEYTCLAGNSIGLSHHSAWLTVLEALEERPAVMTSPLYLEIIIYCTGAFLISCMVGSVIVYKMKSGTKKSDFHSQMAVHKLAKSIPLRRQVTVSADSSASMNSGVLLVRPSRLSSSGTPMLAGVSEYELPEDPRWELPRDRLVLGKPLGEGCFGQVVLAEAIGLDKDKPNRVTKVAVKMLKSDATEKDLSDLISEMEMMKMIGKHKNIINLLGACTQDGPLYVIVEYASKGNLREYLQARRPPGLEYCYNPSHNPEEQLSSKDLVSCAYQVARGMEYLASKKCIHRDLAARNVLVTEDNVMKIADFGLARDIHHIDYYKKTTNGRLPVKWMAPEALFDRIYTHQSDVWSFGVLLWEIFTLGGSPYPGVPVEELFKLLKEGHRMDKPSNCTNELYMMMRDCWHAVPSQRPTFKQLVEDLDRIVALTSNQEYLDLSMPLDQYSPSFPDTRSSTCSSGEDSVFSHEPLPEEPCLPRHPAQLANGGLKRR

SMILES | Kd (FGFR1) [nM] | Kd (FGFR3) [nM] | Kd (FGFR1; [1]) [nM] | Kd (FGFR3; [1]) [nM]
COc1cc2[nH]nc(-c3ccc(N4CC[C@](C)(N)C4)nc3)c2cc1O[C@H](C)c1c(Cl)cncc1Cl [Example 381, (S)-1-(5-(5-((R)-1-(3,5-dichloropyridin-4-yl)ethoxy)-6-methoxy-1H-indazol-3-yl)pyridin-2-yl)-3-methyl-pyrrolidin-3-amine] | 1 to 50 | 1 to 50 | – | –
C[C@@H](Oc1ccc2[nH]nc(-c3cnc(N4CC[C@](C)(N)C4)c(F)c3)c2c1)c1c(Cl)cncc1Cl [Example 396, (S)-1-(5-(5-((R)-1-(3,5-dichloropyridin-4-yl)ethoxy)-1H-indazol-3-yl)-3-fluoropyridin-2-yl)-3-methylpyrrolidin-3-amine] | – | – | 1 to 50 | 1 to 50
C[C@@H](Oc1ccc2[nH]nc(-c3ccc(N4CC[C@@](N)(Cc5ccn(C)n5)C4)nn3)c2c1)c1c(Cl)cncc1Cl [Example 427, (R)-1-(6-(5-((R)-1-(3,5-dichloropyridin-4-yl)ethoxy)-1H-indazol-3-yl)pyridazin-3-yl)-3-((1-methyl-1H-pyrazol-3-yl)methyl)pyrrolidin-3-amine] | – | – | 1 to 50 | 1 to 50
C[C@@H](Oc1ccc2[nH]nc(-c3cnc(N4CC[C@@](N)(c5ccnn5C)C4)c(F)c3)c2c1)c1c(Cl)cncc1Cl [Example 405, (S)-1-(5-(5-((R)-1-(3,5-dichloropyridin-4-yl)ethoxy)-1H-indazol-3-yl)-3-fluoropyridin-2-yl)-3-(1-methyl-1H-pyrazol-5-yl)pyrrolidin-3-amine] | – | – | 1 to 50 | 1 to 50
C=CCNC1(C)CN(c2ccc(-c3n[nH]c4ccc(O[C@H](C)c5c(Cl)cncc5Cl)cc34)c(F)n2)C1 [Example 240, (R)-N-ally1-1-(5-(5-(1-(3,5-dichloropyridin-4-yl)ethoxy)-1H-indazol-3-yl)-6-fluoropyridin-2-yl)-3-methylazetidin-3-amine] | 1 to 50 | 1 to 50 | – | –
C[C@@H](Oc1ccc2[nH]nc(-c3cnc(N4CC(N)(C5CCOCC5)C4)c(F)c3)c2c1)c1c(Cl)cncc1Cl [Example 263, (R)-1-(5-(5-(1-(3,5-dichloropyridin-4-yl)ethoxy)-1H-indazol-3-yl)-3-fluoropyridin-2-yl)-3-(tetrahydro-2H-pyran-4-yl)azetidin-3-amine] | 1 to 50 | 1 to 50 | – | –
COc1cc2[nH]nc(-c3cnc(N4CC[C@](C)(N)C4)c(F)c3)c2cc1O[C@H](C)c1c(Cl)cncc1Cl [Example 389, (S)-1-(5-(5-((R)-1-(3,5-dichloropyridin-4-yl)ethoxy)-6-methoxy-1H-indazol-3-yl)-3-fluoropyridin-2-yl)-3-methylpyrrolidin-3-amine] | – | – | 1 to 50 | 1 to 50
C[C@@H](Oc1ccc2[nH]nc(-c3cnc(N4CCC(N)(CCS(C)(=O)=O)CC4)c(F)c3)c2c1)c1c(Cl)cncc1Cl [Example 395, (R)-1-(5-(5-(1-(3,5-dichloropyridin-4-yl)ethoxy)-1H-indazol-3-yl)-3-fluoropyridin-2-yl)-4-(2-(methylsulfonyl)ethyl) piperidin-4-amine] | – | – | 1 to 50 | 1 to 50
CCNC1(C)CN(c2ncc(-c3n[nH]c4ccc(O[C@H](C)c5c(Cl)cncc5Cl)cc34)cn2)C1 [Example 238, (R)-1-(5-(5-(1-(3,5-dichloropyridin-4-yl)ethoxy)-1H-indazol-3-yl)pyrimidin-2-yl)-N-ethyl-3-methylazetidin-3-amine] | 1 to 50 | 1 to 50 | – | –
C[C@H](O)CC1(N)CN(c2ccc(-c3n[nH]c4ccc(O[C@H](C)c5c(Cl)cncc5Cl)cc34)nn2)C1 [Example 373, (S)-1-(3-amino-1-(6-(5-((R)-1-(3,5-dichloropyridin-4-yl)ethoxy)-1H-indazol-3-yl)pyridazin-3-yl)azetidin-3-yl)propan-2-ol] | 1 to 50 | 1 to 50 | – | –
C[C@@H](Oc1ccc2[nH]nc(-c3cnc(N4CC(N)(C(=O)N(C)C)C4)c(F)c3)c2c1)c1c(Cl)cncc1Cl [Example 293, (R)-3-amino-1-(5-(5-(1-(3,5-dichloropyridin-4-yl)ethoxy)-1H-indazol-3-yl)-3-fluoropyridin-2-yl)-N,N-dimethylazetidine-3-carboxamide] | 1 to 50 | 1 to 50 | – | –
C[C@@H](Oc1ccc2[nH]nc(-c3cnc(N4CC(CC#N)(N(C)C)C4)c(F)c3)c2c1)c1c(Cl)cncc1Cl [Example 252, (R)-2-(1-(5-(5-(1-(3,5-dichloropyridin-4-yl)ethoxy)-1H-indazol-3-yl)-3-fluoropyridin-2-yl)-3-(dimethyl-amino)azeti-din-3-yl)acetonitrile] | 1 to 50 | 1 to 50 | – | –
C[C@@H](Oc1ccc2[nH]nc(-c3ccc(N4CC(N)(CCF)C4)nn3)c2c1)c1c(Cl)cncc1Cl [Example 292, (R)-1-(6-(5-(1-(3,5-dichloropyridin-4-yl)ethoxy)-1H-indazol-3-yl)pyridazin-3-yl)-3-(2-fluoroethyl)azetidin-3-amine] | 1 to 50 | 1 to 50 | – | –
C[C@@H](Oc1ccc2[nH]nc(-c3ccc(N4CC(C)(NCCC#N)C4)nn3)c2c1)c1c(Cl)cncc1Cl [Example 313, (R)-3-((1-(6-(5-(1-(3,5-dichloropyridin-4-yl)ethoxy)-1H-indazol-3-yl)pyridazin-3-yl)-3-methylazetidin-3-yl)amino)propane-nitrile] | 1 to 50 | 1 to 50 | – | –
CCC(C)C1(N)CN(c2ncc(-c3n[nH]c4ccc(O[C@H](C)c5c(Cl)cncc5Cl)cc34)cc2F)C1 (stereo partly drawn) [Example 280, 1-[5-[5-[(1R)-1-(3,5-dichloro-4-pyridyl)ethoxy]-1H-indazol-3-yl]-3-fluoro-2-pyridyl]-3-sec-butyl-azetidin-3-amine] | 1 to 50 | 1 to 50 | – | –
C[C@@H](Oc1ccc2[nH]nc(-c3ccc(N4CC(C)(NCC(F)F)C4)nn3)c2c1)c1c(Cl)cncc1Cl [Example 312, (R)-1-(6-(5-(1-(3,5-dichloropyridin-4-yl)ethoxy)-1H-indazol-3-yl)pyridazin-3-yl)-N-(2,2-difluoroethyl)-3-methylazetidin-3-amine] | 1 to 50 | 1 to 50 | – | –
C[C@@H](Oc1ccc2[nH]nc(-c3ccc(N4CC[C@](N)(Cc5ccn(C)n5)C4)nn3)c2c1)c1c(Cl)cncc1Cl [Example 426, (S)-1-(6-(5-((R)-1-(3,5-dichloropyridin-4-yl)ethoxy)-1H-indazol-3-yl)pyridazin-3-yl)-3-((1-methyl-1H-pyrazol-3-yl)methyl)pyrrolidin-3-amine] | – | – | 1 to 50 | 1 to 50
C[C@@H](Oc1ccc2[nH]nc(-c3cnc(N4CCC(C)(N)CC4)c(F)c3)c2c1)c1c(Cl)cncc1Cl [Example 401] | – | – | 1 to 50 | 1 to 50
CC(C)CNC1(CC#N)CN(c2ncc(-c3n[nH]c4ccc(O[C@H](C)c5c(Cl)cncc5Cl)cc34)cc2F)C1 [Example 253, (R)-2-(1-(5-(5-(1-(3,5-Dichloropyridin-4-yl)ethoxy)-1H-indazol-3-yl)-3-fluoropyridin-2-yl)-3-(iso-butylamino)azeti-din-3-yl)acetonitrile dihydrochloride] | 50 to 300 | 1 to 50 | – | –
CNC(=O)C1(N)CN(c2ncc(-c3n[nH]c4ccc(O[C@H](C)c5c(Cl)cncc5Cl)cc34)cc2F)C1 [Example 296, (R)-3-amino-1-(5-(5-(1-(3,5-dichloropyridin-4-yl)ethoxy)-1H-indazol-3-yl)-3-fluoropyridin-2-yl)-N-methylazetidine-3-carboxamide] | 1 to 50 | 1 to 50 | – | –
C[C@@H](Oc1ccc2[nH]nc(-c3ccc(N4CC(N)(CCCO)C4)nn3)c2c1)c1c(Cl)cncc1Cl [Example 372, (R)-3-(3-amino-1-(6-(5-(1-(3,5-dichloropyridin-4-yl)ethoxy)-1H-indazol-3-yl)pyridazin-3-yl)azetidin-3-yl)propan-1-ol] | 1 to 50 | 1 to 50 | – | –
COc1cc2[nH]nc(-c3ccc(N4CC(C)(N)C4)nc3)c2cc1O[C@H](C)c1c(Cl)cncc1Cl [Example 379, (R)-1-(5-(5-(1-(3,5-dichloropyridin-4-yl)ethoxy)-6-methoxy-1H-indazol-3-yl)pyridin-2-yl)-3-methylazetidin-3-amine] | 1 to 50 | 1 to 50 | – | –
COc1cc2[nH]nc(-c3cnc(N4CC[C@@](C)(N)C4)c(F)c3)c2cc1O[C@H](C)c1c(Cl)cncc1Cl [Example 315, (R)-1-(5-(5-((R)-1-(3,5-dichloropyridin-4-yl)ethoxy)-6-methoxy-1H-indazol-3-yl)-3-fluoropyridin-2-yl)-3-methylpyrrolidin-3-amine] | 1 to 50 | 1 to 50 | – | –
COc1cc2[nH]nc(-c3cnc(N4CC(C)(N)C4)nc3)c2cc1O[C@H](C)c1c(Cl)cncc1Cl [Example 302, (R)-1-(5-(5-(1-(3,5-dichloropyridin-4-yl)ethoxy)-6-methoxy-1H-indazol-3-yl)pyrimidin-2-yl)-3-methylazetidin-3-amine] | 1 to 50 | 1 to 50 | – | –
C[C@@H](Oc1ccc2[nH]nc(-c3ccc(N4CC[C@](C)(N)C4)nn3)c2c1)c1c(Cl)cncc1Cl [Example 407, (S)-1-(6-(5-((R)-1-(3,5-dichloropyridin-4-yl)ethoxy)-1H-indazol-3-yl)pyridazin-3-yl)-3-methylpyrrolidin-3-amine] | – | – | 1 to 50 | 1 to 50
